One compound from patent US20230212131A1, “COLLAGEN 1 TRANSLATION INHIBITORS AND METHODS OF USE THEREOF” (Anima Biotech Inc., priority 2020, published 2023) can be followed below.

One assay relates to Collagen type-I. The assay can be described thus: Collagen type-I immunofluorescence and Col-I mRNA FISH in WI-38 Human Lung Fibroblasts (FIG. 4). The assay is classed as cell-based. The note with it: 96 hours incubation (immunofluorescence), 24 hours incubation (FISH of Col-I mRNA). As for the experimental part: FIG. 4A: WI-38 Human Lung Fibroblasts, 96 hours incubation with compounds. White: Collagen type-I; Gray: DAPI. Immunofluorescence. FIG. 4B: WI-38 Human Lung Fibroblasts, 24 hours incubation with compounds. FISH analysis. White: Col-I mRNA; Gray: DAPI.
Cells in 96-well or 384-well plates were fixed for 20 min in 4% paraformaldehyde (PFA, ENCO, Cat. sc-281692). Following two washes with 1×PBS, cells were treated with hydrogen peroxide (Acros, Cat: 7722-84-1) for 10 minutes and then washed twice with 1×PBS. Cells were then incubated over-night at 4° C. with Anti-Collagen I (Sigma-Aldrich, Cat: C 2456) antibody and washed three times with 1×PBS. […]
Cell images were taken with Operetta (Perkin Elmer, USA), a wide-field fluorescence microscope at 20× magnification. […] In Columbus, cells were identified by their nucleus, using the “Find Nuceli” module and cytoplasm was detected based on the secondary antibody channel. […]
Following RNA FISH experiments, images of cells were taken with Operetta (Perkin Elmer, USA), a wide-field fluorescence microscope at 20× magnification. […] In Columbus, cells were identified by their nucleus, using the “Find Nuceli” module, cytoplasm was detected based on the FISH-channel, and single mRNAs in the cytoplasm and transcription sites in the nucleus were detected using “Find Spots” module. […]

Another assay relates to Collagen translation. The assay can be described thus: Tissue selectivity of collagen translation modulator (FIG. 3). Type of assay: cell-based. The method, then: Primary human pulmonary fibroblasts (HPF, PromoCell C-12360) were maintained in fibroblast growth medium 2 (PromoCell C-23020) according to manufacture instruction. Collagen synthesis was inducted using the same cocktail as for the WI-38 cells.
Primary human dermal fibroblasts (HDF) (PromoCell C-12302) were maintained in PromoCell's proprietary Fibroblast Growth Medium 2 (ready-to-use, Cat. C-23020). For collagen synthesis induction, cells were seeded on experimental plates for 24 hours followed by addition of collagen induction cocktail. Tested compounds were added together with induction.

A further assay deals with collagen 1 (COL1). Nature of the assay: WI-38 collagen 1 inhibition assay. The note with it: Cellular EC50, WI-38 cells; values are classes of LogEC50. The assay is classed as cell-based, human. In outline: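 WI-38 fibroblasts serum-starved (0.25% FBS 2 h, then none 24 h), then given a collagen induction cocktail together with compound. Cells fixed, immunostained for collagen I with DAPI counterstain, and imaged at 20×; per-cell fluorescence quantified by image analysis.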

Consider `O=C(Nc1nc(-c2ccccc2Cl)cs1)c1ccc(N2CCOCC2)cc1` [compound 327, N-[4-(2-chlorophenyl)thiazol-2-yl]-4-morpholino-benzamide], for which the “level of action on collagen synthesis” value in the assay on Collagen type-I is on record as “act at the level of translation”. Besides, the tissue selectivity entry in the assay with Collagen translation was “tissue selective”. For the same compound, the “COL1 Efficacy (LogEC50)” value with collagen 1 (COL1) is listed as “+++ (+++: <−6)”.
